Source: US20230034696A1, “EGFR INHIBITORS” (Hoffmann-La Roche Inc., priority 2019, published 2023)

Target: T1, EGFR TMLRCS (BaF3-TMLRCS cell line) (Homo sapiens, UniProt P00533, C797S/L858R/T790M)
T1 construct: host or cells: BaF3 (murine pro-B cells) engineered to express EGFR TMLRCS
Assay: HTRF Phospho EGFR TMLRCS assay (cellular)
Assay type: cell-based
Conditions: BaF3-TMLRCS cells, 4 hours incubation
Procedure: HTRF Phospho EGFR TMLRCS Assay (Cellular)
BaF3-TMLRCS cell line were obtained from Crownbio (San Diego, CA, USA). Cells were maintained at 37° C., 5% CO2 in RPMI ATCC (Gibco 31870) + 2 mM Glutamine + 0.5 µg/ml Puromycin supplemented with 10% fetal bovine serum (FBS) (Gibco).
Cells are transferred as above to Greiner Bio-One, Nr. 784-08 micro-titerplate at 20000 cells/well in 12.5 µl of growth medium/well after the plates had been pre-filled with 12.5 nl of DMSO solutions of the to be tested compound (in dose response) or DMSO only. After spinning the plates at 300 × g for 30 seconds the cells were incubated for 4 hours at 37C, 5% CO2, 95% humidity. The cells were lysed by adding to the compound mix 4 µl/well of the supplemented lysis buffer (Cis-bio, Phospho-EGFR HTRF kit, 64EG1PEH), followed by incubation for 30 min at room temperature with shaking (400 rpm). The plates were then frozen and stored overnight at -80C. […] The lidded plates were then incubated for 4 h at room temperature before reading the fluorescence emission at 616 and 665 nm using an Envision reader (Perkin Elmer). Data was analyzed in similar fashion as above using the normalized ratio of the 665 to 616 signals multiplied by 10000.

T1 sequence (P00533 25-1210 T790M/C797S/L858R): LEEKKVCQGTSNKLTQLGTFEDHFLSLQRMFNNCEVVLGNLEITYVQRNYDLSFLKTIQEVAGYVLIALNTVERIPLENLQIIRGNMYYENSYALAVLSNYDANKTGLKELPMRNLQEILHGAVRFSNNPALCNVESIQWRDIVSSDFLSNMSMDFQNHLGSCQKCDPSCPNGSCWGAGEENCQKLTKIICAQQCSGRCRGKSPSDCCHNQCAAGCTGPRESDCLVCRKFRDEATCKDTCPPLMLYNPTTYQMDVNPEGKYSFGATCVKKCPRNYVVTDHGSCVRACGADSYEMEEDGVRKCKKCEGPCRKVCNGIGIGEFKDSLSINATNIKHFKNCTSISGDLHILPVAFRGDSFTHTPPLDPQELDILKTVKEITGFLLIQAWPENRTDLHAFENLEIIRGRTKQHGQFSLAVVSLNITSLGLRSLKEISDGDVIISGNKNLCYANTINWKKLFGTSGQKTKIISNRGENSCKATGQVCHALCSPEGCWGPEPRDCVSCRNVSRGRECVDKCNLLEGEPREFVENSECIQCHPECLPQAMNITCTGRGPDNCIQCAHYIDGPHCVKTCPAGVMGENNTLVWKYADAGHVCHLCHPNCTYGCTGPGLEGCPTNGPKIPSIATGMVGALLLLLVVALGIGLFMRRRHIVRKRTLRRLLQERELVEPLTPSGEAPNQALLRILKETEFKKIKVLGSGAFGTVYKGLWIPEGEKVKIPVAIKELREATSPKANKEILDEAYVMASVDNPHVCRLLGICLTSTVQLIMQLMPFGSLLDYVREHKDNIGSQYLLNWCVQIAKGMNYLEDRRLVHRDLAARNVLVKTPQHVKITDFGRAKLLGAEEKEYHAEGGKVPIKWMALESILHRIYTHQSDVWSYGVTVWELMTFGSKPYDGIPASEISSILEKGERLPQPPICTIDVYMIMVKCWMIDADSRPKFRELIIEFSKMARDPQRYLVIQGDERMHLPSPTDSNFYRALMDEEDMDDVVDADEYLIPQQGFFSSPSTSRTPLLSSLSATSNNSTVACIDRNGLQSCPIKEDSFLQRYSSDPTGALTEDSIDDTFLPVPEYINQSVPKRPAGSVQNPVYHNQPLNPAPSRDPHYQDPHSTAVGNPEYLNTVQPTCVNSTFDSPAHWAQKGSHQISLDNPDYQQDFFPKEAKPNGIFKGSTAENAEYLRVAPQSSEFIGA

IC50: 3 nM
Structure (SMILES): O=C(Nc1nccs1)C(c1ncn2c1CCC2)N1Cc2c(Cl)cc(C#Cc3ccc(CN4CCC(CO)CC4)cc3)cc2C1=O (racemic) [Example 1, 2-[4-chloro-6-[2-[4-[[4-(hydroxymethyl)-1-piperidyl]methyl]phenyl]ethynyl]-1-oxo-isoindolin-2-yl]-2-(6,7-dihydro-5H-pyrrolo[1,2-c]imidazol-1-yl)-N-thiazol-2-yl-acetamide]
